Laboratory results as given in patent US20240009149A1, “NON-AQUEOUS GEL COMPOSITION” (Acousia Therapeutics GmbH, priority 2020, published 2024).

How the values were obtained:
Format in all cases: physicochemical
[1] = solubility in water at room temperature; settings: for Biopharmaceutics Classification System class: classified from low water solubility; for solubility: water, 24 °C, 22-26° C.
[2] = Particle Size Distribution (Malvern MasterSizer, laser diffraction)
Description: The mean particle size distribution is preferably obtained by laser diffraction. During a laser diffraction measurement a laser beam passes through a dispersed particulate sample and the angular variation in intensity of the scattered light is measured. Large particles scatter light at small angles relative to the laser beam and small particles scatter light at large angles. The angular scattering intensity data is then analyzed to calculate the size of the particles that created the scattering pattern using the Mie theory of light scattering. The particle size is reported as a volume equivalent sphere diameter. The folded optical design in the Mastersizer 3000 (from Malvern Panalytical), which was in particular used for the measurements provides a particle size measurement range from 10 nm up to 3.5 mm using a single optical measurement path. The Mastersizer 3000 uses a sequential combination of measurements with red and blue light sources to measure across the entire particle size range.
In some embodiments, the PSD (Particle Size Distribution) of the pharmaceutically active agent was measured with a Malvern MasterSizer 2000 or 3000 (in water as dispersion medium, stirrer speed 1500 rpm, Mie presentation) to give the following results (table 11). […] Some of the grinded batches are reported with the full PSD profile in FIG. 5: […]

[3] = impurity profile by HPLC prior and after gamma irradiation
[4] = FIG. 5 lower illustration, micronized sample, jet mill
[5] = FIG. 5 middle illustration, manual grinded sample
[6] = FIG. 5 upper illustration, manual grinded sample
[7] = Gamma irradiated at 49.6 KGy under dry ice

## O=C(NCc1cccc(S(F)(F)(F)(F)F)c1)[C@H]1C[C@@H]2CC[C@H]1C2 (racemic) [Compound A, (1SR,2SR,4RS)-N-(3-(pentafluoro-λ6-sulfanyl)benzyl)bicyclo[2.2.1]heptane-2-carboxamide]
[1]
  Biopharmaceutics Classification System class: BCS class II
  solubility: < 1 mg/mL

## O=C(NCc1cccc(S(F)(F)(F)(F)F)c1)[C@H]1C[C@@H]2CC[C@H]1C2 [Compound B, (1S,2S,4R)-N-(3-(pentafluoro-λ6-sulfaneyl)benzyl)bicyclo[2.2.1]heptane-2-carboxamide]
[2]; [4]
  d10: 3.4 microns
  d50: 12.4 microns
  d90: 26.3 microns
[2]; [5]
  d10: 6.5 microns
  d50: 32 microns
  d90: 72 microns
[2]; [6]
  d10: 4.4 microns
  d50: 18 microns
  d90: 44 microns
[2]; in the gel versus after grinding
  PSD of the active ingredient in the non-aqueous gel composition: remained unchanged
[3]; Gamma irradiated at 49.6 KGy
  *Imp. 8. rel.tR = 0.95: 3.29 Area %
  Imp. 1. rel.tR = 0.22: 0.11 Area %
  Imp. 2. rel.tR = 0.37: 0.11 Area %
  Imp. 3. rel.tR = 0.48: 0.24 Area %
  Imp. 4. rel.tR = 0.52: 0.12 Area %
  Imp. 5. rel.tR = 0.54: 0.08 Area %
  Imp. 6. rel.tR = 0.58: 0.14 Area %
  Imp. 7. rel.tR = 0.71: 0.39 Area %
  Imp. 9. rel.tR = 1.27: 0.32 Area %
  Imp. 10. rel.tR = 1.80: 0.06 Area %
  Sum of impurities: 4.86 Area %
  impurity Increase compared to initial: +1.25 Area %
[3]; [7]
  *Imp. 8. rel.tR = 0.95: 3.35 Area %
  Imp. 1. rel.tR = 0.22: 0.23 Area %
  Imp. 2. rel.tR = 0.37: 0.03 Area %
  Imp. 3. rel.tR = 0.48: 0.12 Area %
  Imp. 4. rel.tR = 0.52: 0.12 Area %
  Imp. 5. rel.tR = 0.54: 0.05 Area %
  Imp. 6. rel.tR = 0.58: 0.15 Area %
  Imp. 7. rel.tR = 0.71: 0.34 Area %
  Imp. 9. rel.tR = 1.27: 0.20 Area %
  Sum of impurities: 4.59 Area %
  impurity Increase compared to initial: +0.98 Area %
[3]; Initial API
  *Imp. 8. rel.tR = 0.95: 3.48 Area %
  Imp. 3. rel.tR = 0.48: 0.13 Area %
  Imp. 4. rel.tR = 0.52: <0.05 Area %
  Imp. 7. rel.tR = 0.71: <0.05 Area %
  Sum of impurities: 3.61 Area %
[3]; standard conditions, dry ice used for cooling
  effect of gamma irradiation on the quality of the active ingredient: only minor effects
[1]
  Biopharmaceutics Classification System class: BCS class II
  solubility: < 1 mg/mL
